Laboratory results as given in ChEMBL document CHEMBL4342479, “Reactive Oxygen Species (ROS)-Activatable Prodrug for Selective Activation of ATF6 after Ischemia/Reperfusion Injury” (ACS Med Chem Lett, 2020).
Active and inactive are the calls of the source. No cut-off for these calls is given here.

Experiments:
[1] = biological target: T1, Cyclic AMP-dependent transcription factor ATF-6 alpha (Rattus norvegicus) (UniProt G3V909); assay: Activation of ATF6 in NRVM isolated from Sprague-Dawley rat assessed as increase in catalase expression at 10 uM using compound pre-activated with hydrogen peroxide for 8 hrs prior to NRVM treatment and measured after 16 hrs by SYBR green dye-based qRT-PCR analysis
T1 sequence (whole entry): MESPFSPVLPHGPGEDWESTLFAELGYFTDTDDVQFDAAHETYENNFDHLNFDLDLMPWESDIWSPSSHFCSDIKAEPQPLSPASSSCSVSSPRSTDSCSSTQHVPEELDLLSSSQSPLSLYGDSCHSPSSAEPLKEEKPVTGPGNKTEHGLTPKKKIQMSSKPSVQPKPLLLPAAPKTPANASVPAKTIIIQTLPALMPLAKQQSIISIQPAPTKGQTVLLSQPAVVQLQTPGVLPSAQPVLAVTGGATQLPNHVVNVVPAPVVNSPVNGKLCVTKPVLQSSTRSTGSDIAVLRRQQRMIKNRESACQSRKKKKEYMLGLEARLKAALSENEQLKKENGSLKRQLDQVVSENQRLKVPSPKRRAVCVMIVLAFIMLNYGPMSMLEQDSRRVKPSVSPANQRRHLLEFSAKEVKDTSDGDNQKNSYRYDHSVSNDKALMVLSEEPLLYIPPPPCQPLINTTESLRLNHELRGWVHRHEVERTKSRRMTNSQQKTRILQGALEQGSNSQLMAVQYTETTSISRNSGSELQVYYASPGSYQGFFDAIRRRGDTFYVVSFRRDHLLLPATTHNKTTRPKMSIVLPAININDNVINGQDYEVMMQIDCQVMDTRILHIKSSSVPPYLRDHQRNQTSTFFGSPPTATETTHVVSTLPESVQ

[2] = species: Rattus norvegicus; assay: Cytoprotection against hydrogen peroxide-induced toxicity in NRVM isolated from Sprague-Dawley rat assessed as increase in cell viability at 10 uM pretreated for 24 hrs followed by hydrogen peroxide challenge measured after 8 hrs by MTT assay; type: functional
[3] = Stability of compound in HBS buffer at 1 mM at pH 7.3 and 37 degree C by HPLC or LC-MS analysis; type: physicochemical; settings: pH 7.3, 1000 µM
[4] = biological target: T2, Cytochrome P450 1A2 (Homo sapiens, UniProt P05177); assay: Substrate activity at recombinant CYP1A2 (unknown origin) assessed as [4-[[4-methyl-2-(3-phenylpropanoylamino)phenoxy]methyl]phenyl]boronic acid formation incubated for 24 hrs in presence of NADP+ by LC-MS analysis; type: ADME; settings: recombinant enzyme
T2 sequence (P05177 whole entry): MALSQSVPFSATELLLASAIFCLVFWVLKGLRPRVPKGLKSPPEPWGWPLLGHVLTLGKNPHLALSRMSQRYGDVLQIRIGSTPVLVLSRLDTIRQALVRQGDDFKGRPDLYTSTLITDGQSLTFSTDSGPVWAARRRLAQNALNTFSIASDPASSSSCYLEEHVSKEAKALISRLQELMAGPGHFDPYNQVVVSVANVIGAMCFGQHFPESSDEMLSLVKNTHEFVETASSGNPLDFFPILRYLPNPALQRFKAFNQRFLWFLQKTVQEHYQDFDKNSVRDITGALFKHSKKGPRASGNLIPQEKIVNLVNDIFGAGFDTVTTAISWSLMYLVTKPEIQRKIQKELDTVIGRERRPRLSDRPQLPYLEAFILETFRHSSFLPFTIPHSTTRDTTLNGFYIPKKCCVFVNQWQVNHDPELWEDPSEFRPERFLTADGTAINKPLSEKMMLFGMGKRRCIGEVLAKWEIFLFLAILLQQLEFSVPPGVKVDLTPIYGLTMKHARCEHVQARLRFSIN

[5] = biological target: T1, Cyclic AMP-dependent transcription factor ATF-6 alpha (Rattus norvegicus); assay: Activation of ATF6 in simulated-ischemia-reperfusion NRVM isolated from Sprague-Dawley rat assessed as increase in cell viability by measuring media LDH content at 10 uM followed by ischemia simulation for 8 hrs and subsequent reperfusion and compound treatment for 24 hrs under normoxia condition by calcein-AM green dye based fluorescence microscopy
[6] = Drug degradation in HBS buffer assessed as half life at 1 mM at pH 7.3 and 37 degree C by HPLC or LC-MS analysis; type: physicochemical
[7] = biological target: T1, Cyclic AMP-dependent transcription factor ATF-6 alpha (Rattus norvegicus); assay: Activation of ATF6 in simulated-ischemia-reperfusion NRVM isolated from Sprague-Dawley rat assessed as increase in cell viability by measuring media LDH content at 10 uM followed by ischemia simulation for 8 hrs and subsequent reperfusion and compound treatment for 24 hrs by LDH assay
[8] = biological target: T1, Cyclic AMP-dependent transcription factor ATF-6 alpha (Rattus norvegicus); assay: Activation of ATF6 in NRVM isolated from Sprague-Dawley rat assessed as increase in GRP78 expression at 10 uM using compound pre-activated with hydrogen peroxide for 8 hrs prior to NRVM treatment and measured after 16 hrs by SYBR green dye-based qRT-PCR analysis
[9] = biological target: T2, Cytochrome P450 1A2; assay: Drug metabolism assessed as recombinant CYP1A2 (unknown origin)-mediated oxidation incubated for 24 hrs in presence of NADP+ by LC-MS analysis; type: ADME; settings: recombinant enzyme
[10] = Drug metabolism assessed as intact compound incubated for 24 hrs in presence of NADP+ and absence of recombinant CYP1A2 by LC-MS analysis
[11] = biological target: T1, Cyclic AMP-dependent transcription factor ATF-6 alpha (Rattus norvegicus); assay: Activation of ATF6 in NRVM isolated from Sprague-Dawley rat assessed as increase in GRP78 expression at 10 uM measured after 16 hrs by SYBR green dye-based qRT-PCR analysis
[12] = biological target: T1, Cyclic AMP-dependent transcription factor ATF-6 alpha (Rattus norvegicus); assay: Activation of ATF6 in NRVM isolated from Sprague-Dawley rat assessed as increase in catalase expression at 10 uM measured after 16 hrs by SYBR green dye-based qRT-PCR analysis

Structure (SMILES)	Activity [1]	Activity [2]	Stability [3]	Drug metabolism [4]	Activity [5]	half-life at 1000 µM [6] [days]	Activity [7]	Activity [8]	Drug metabolism [9]	Drug metabolism [10]	Activity [11]	Activity [12]
Cc1ccc(OCc2ccc(B3OC(C)(C)C(C)(C)O3)cc2)c(NC(=O)CCc2ccccc2)c1	Active	Active	Stable	Metabolite_Notdetected	Active	25.8	Active	Active				
Cc1ccc(OCCc2ccc(B3OC(C)(C)C(C)(C)O3)cc2)c(NC(=O)CCc2ccccc2)c1	inactive							inactive				
Cc1ccc(O)c(NC(=O)CCc2ccccc2)c1		Active			Active		Active		Metabolite_Detected	Metabolite not detected	Active	Active
